According to paper PMC7277541, “Antimicrobial and Antifungal Activities of Terpene-Derived Palladium Complexes” (Antibiotics, 2020):
≈ marks a conversion by molar mass, not a printed value. Where “and” joins values, the source holds several entries; their conditions need not be identical. Equal values may be shown once.

How the values were obtained:
[1] = system: human embryonic kidney cells (HEK293, ATCC CRL-1573); assay: Cytotoxicity assay (resazurin); type: cell-based; conditions: HEK293, 20 h incubation
Procedure: Screening against bacteria and yeasts for antimicrobial activity and toxicity against mammalian cells was performed in duplicate (n = 2). […] HEK293 cells were counted manually in a Neubauer hemocytometer and added to compound-containing plates (384-well plates, tissue culture treated (TC); Corning CLS3712) giving a final density of 5000 cells/well in a total volume of 50 μL, using Dulbecco's Modified Eagle Medium (DMEM; Life Technologies 11995-073) with 10% Fetal Bovine Serum (FBS; GE SH30084.03). […] Sigma R7017) and after further incubation for 3 h at 37 °C in 5% CO2. Media only was used as negative control and cells without inhibitors as positive growth control. CC50 (concentration at 50% cytotoxicity) values were calculated by curve fitting the inhibition values vs. log(concentration) using a sigmoidal dose-response function, with variable fitting values for bottom, top and slope. Tamoxifen (Sigma Aldrich, Australia T5648) was used as positive inhibitor control on each plate. Selectivity indices (SI) were calculated by dividing the CC50 value (μg/mL) by the MIC value (μg/mL) for a given bacterial or fungal strain.

[2] = system: S. aureus (MRSA) ATCC 43300; assay: Antibacterial MIC assay, S. aureus (MRSA); type: cell-based, Staphylococcus aureus; conditions: CAMHB, 18 h, growth inhibited by ≥ 80%, range tested 0.25 to 32 μg/mL, n = 2
Procedure: (§1) Dry compounds were dissolved in dimethyl sulfoxide (DMSO), and serially diluted 2-fold to produce an 8-point dose response with DMSO/water and then added into microtiter plates with a final DMSO concentration of 0.5%, providing a concentration range of 0.25 to 32 μg/mL. Screening against bacteria and yeasts for antimicrobial activity and toxicity against mammalian cells was performed in duplicate (n = 2).
For the bacterial assays, each bacterial strain was cultured in Cation-Adjusted Mueller Hinton Broth (CAMHB; Bacto Laboratories 212322) at 37 °C overnight. Bacterial strains tested were methicillin resistant S. aureus (methicillin-resistant Staphylococcus aureus - MRSA) ATCC 43300, E. coli ATCC 25922, K. pneumoniae K6/ESBL ATCC 700603, P. aeruginosa ATCC 27853, A. baumannii ATCC 19606. A sample of each culture was then diluted 40-fold in fresh CAMHB and incubated at 37 °C for 1.5–3 h. The resultant mid-log phase cultures were diluted with CAMHB (CFU/mL measured by OD600), then added to each well of the compound-containing plates (384-well non-binding surface (NBS) plates; Corning CLS3640), giving a final cell density of 5 × 10^5 CFU/mL and a total volume of 50 μL. Plates were covered and incubated at 37 °C for 18 h without shaking. Inhibition of bacterial growth was determined by measuring absorbance at 600 nm (OD600), using media only as negative control and bacteria without inhibitors as positive control. MIC values were determined as the lowest concentration at which the growth was inhibited by ≥ 80% (equivalent to no visible growth by eye). Colistin sulfate (Sigma Aldrich, Castle Hill, Australia C4461) and vancomycin HCl (Sigma Aldrich, 861987) were used as positive inhibitor controls on each plate for Gram-negative and Gram-positive bacteria, respectively.

C. albicans ATCC 90028 = assay: Antifungal MIC assay, C. albicans; type: cell-based, Candida albicans; conditions: YNB, 35 °C, 36 h, growth inhibited ≥ 80%; range tested 0.25 to 32 μg/mL; n = 2
Procedure: as §1, with “All screened compounds were > 95% purity as determined by NMR. Dry” for “Dry”
For the fungal assays, yeast strains C. neoformans var. grubii H99 ATCC 208821 and C. albicans ATCC 90028 were cultured for 3 days on Yeast Extract-Peptone Dextrose (YPD; Becton Dickinson 242720) agar at 30 °C. A yeast suspension of 1 × 10^6 to 5 × 10^6 CFU/mL (as determined by OD530) was prepared from five colonies form the agar plates, and subsequently diluted with Yeast Nitrogen Base media (YNB; Becton Dickinson 233520), and added to each well of the compound containing plates (384-well plates, NBS; Corning CLS3640) giving a final cell density of 2.5 × 10^3 CFU/mL and a total volume of 50 μL. Plates were covered and incubated at 35 °C for 36 h without shaking. Growth inhibition of C. albicans was determined measuring absorbance at 630 nm (OD630), while the growth inhibition of C. neoformans was determined measuring the difference in absorbance between 600 and 570 nm (OD600-570), after the addition of resazurin (0.001% final concentration; Sigma R7017) and incubation at 35 °C for 2 h, using media only as negative control and fungi without inhibitors as positive control. MIC values were determined as the lowest concentration at which the growth was inhibited at ≥ 80% (equivalent to no visible growth by eye). Fluconazole (Sigma Aldrich, F8929) was used as a positive inhibitor control on each plate for both strains.

[3] = system: C. neoformans var. grubii H99 ATCC 208821; assay: Antifungal MIC assay, C. neoformans; type: cell-based, Cryptococcus neoformans; conditions: 35 °C, 36 h, resazurin, growth inhibited ≥ 80%, range tested 0.25 to 32 μg/mL; for Minimum inhibitory concentration (MIC) C. neoformans ATCC 208821: YNB, n = 2
Procedure: Screening against bacteria and yeasts for antimicrobial activity and toxicity against mammalian cells was performed in duplicate (n = 2). […] Becton Dickinson 242720) agar at 30 °C. A yeast suspension of 1 × 10^6 to 5 × 10^6 CFU/mL (as determined by OD530) was prepared from five colonies form the agar plates, and subsequently diluted with Yeast Nitrogen Base media (YNB; Becton Dickinson 233520), and added to each well of the compound containing plates (384-well plates, NBS; […] Plates were covered and incubated at 35 °C for 36 h without shaking. […] Fluconazole (Sigma Aldrich, F8929) was used as a positive inhibitor control on each plate for both strains.

[4] = system: human red blood cells (HRBC); assay: Haemolysis assay; type: cell-based; conditions: 1 h at 37 °C
Procedure: as §1, with “All screened compounds were > 95% purity as determined by NMR. Dry” for “Dry”
Hemolytic activity was assessed against human red blood cells (HRBC), with data presented as HC10, corresponding to the concentration of the compound causing 10% hemolysis. Human whole blood (Australian Red Cross) was washed three times with 3 volumes of 0.9% NaCl and resuspended in a concentration of 0.5 × 10^8 cells/mL, determined by manual cell count in a Neubauer hemocytometer. Washed cells were added to compound containing plates (384-well polypropylene plates (PP); Corning 3657) for a final volume of 50 μL. The plate was shaken with incubation for 1 h at 37 °C. After incubation, the plates were centrifuged at 1000× g for 10 min to pellet cells and debris. Supernatant (25 μL) was then transferred to reading plates (384-well, polystyrene plated (PS), Corning CLS3680), with hemolysis determined by measuring the supernatant absorbance at […] (OD405), using cells without inhibitors as negative control and cells with 1% Triton X-100 (Sigma T8787) as positive control. HC10 and HC50 (concentration at 10% and 50% hemolysis, respectively) were calculated by curve fitting the inhibition values vs. log(concentration) using a sigmoidal dose-response function with variable fitting values for top, bottom and slope. Melittin (Sigma M2272) was used as positive hemolytic control on each plate. Human blood was sourced from the Australian Red Cross Blood Service. Selectivity indices (SI) were calculated by dividing the HC10 value (μg/mL) by the MIC value (μg/mL) for a given bacterial or fungal strain.

Minimum inhibitory concentration (MIC) S. aureus ATCC 43300 [2]	Minimum inhibitory concentration (MIC) C. albicans ATCC 90028 (C. albicans ATCC 90028)	Minimum inhibitory concentration (MIC) C. neoformans ATCC 208821 [3]	MIC ([3]; Cryptococcus neoformans, ATCC208821, YNB, n = 2, read-out: Minimum inhibitory concentration (MIC) C. neoformans ATCC 208821)	Structure (SMILES)	CC50 (concentration of 50% cytotoxicity) [1]	HC10 (concentration of 10% haemolysis) [4]
16 µg/mL	2 µg/mL	0.5 µg/mL		CC12CCC(C(=NC(c3ccccc3)c3cccc[c]3[Pd][Cl])C1=O)C2(C)C.CC12CCC(C(=NC(c3ccccc3)c3cccc[c]3[Pd][Cl])C1=O)C2(C)C (centres unmarked) [Compound 3]	6.0 µg/mL	
32 µg/mL				C[C@H](N[C@@H]1C[C@H]2C[C@H](C2(C)C)[C@@]1(C)O)c1cccc[c]1[Pd][Cl].C[C@H](N[C@@H]1C[C@H]2C[C@H](C2(C)C)[C@@]1(C)O)c1cccc[c]1[Pd][Cl] [Compound 4]	16.6 µg/mL	
8 µg/mL	4—16 μg/mL and 8 μg/mL	4—16 μg/mL and 4 μg/mL		CC(C)(C)c1cc(C=NCCN=C2C[C@H]3C[C@H](C3(C)C)[C@@]2(C)O)c([O][Pd][Cl])c(C(C)(C)C)c1 [Compound 6]	4.5 µg/mL	
>32 µg/mL		4—16 μg/mL and 4 μg/mL		CC12CCC(CC1=NCCN=Cc1ccccc1[O][Pd][Cl])C2(C)C (centres unmarked) [Compound 7]	>32 µg/mL	
			8 µg/mL (≈ 26.1 µM)	OC(Cn1cncn1)(Cn1cncn1)c1ccc(F)cc1F [fluconazole, Fluconazole, reference compound]		
>32 µg/mL	8—16 μg/mL and 8 μg/mL	2—4 μg/mL and 4 μg/mL		CC1(C)[C@H]2CC(=NCCN)[C@](C)(O)[C@@H]1C2.[Cl][Pd][Cl] [Compound 8]	>32 µg/mL	
>32 µg/mL	8—16 μg/mL and 16 μg/mL	2—4 μg/mL and 2 μg/mL		CN(C)CCN=C1C[C@H]2C[C@H](C2(C)C)[C@@]1(C)O.[Cl][Pd][Cl] [Compound 9]	>32 µg/mL	

More lines, now with the values behind:

Structure (SMILES)	Minimum inhibitory concentration (MIC) S. aureus ATCC 43300 [2]	Minimum inhibitory concentration (MIC) C. albicans ATCC 90028 (C. albicans ATCC 90028)	Minimum inhibitory concentration (MIC) C. neoformans ATCC 208821 [3]	MIC ([3]; Cryptococcus neoformans, ATCC208821, YNB, n = 2, read-out: Minimum inhibitory concentration (MIC) C. neoformans ATCC 208821)	CC50 (concentration of 50% cytotoxicity) [1]	HC10 (concentration of 10% haemolysis) [4]
CN(C)CCN=CC1=CCC2CC1C2(C)C.[Cl][Pd][Cl] (centres unmarked) [Compound 11]	>32 µg/mL				10.8 µg/mL	
CN(C)CCNCC1=CCC2CC1C2(C)C.[Cl][Pd][Cl] (centres unmarked) [Compound 12]		2 µg/mL			>32 µg/mL	
CC1(C)[C@@H]2C[C@H]1[C@@](C)(O)[C@H](NCCN[C@@H]1C[C@H]3C[C@H](C3(C)C)[C@@]1(C)O)C2.[Cl][Pd][Cl] [Compound 10]	>32 µg/mL	4 µg/mL	4 µg/mL		>32 µg/mL	
CC[C@H](C)[C@H](NC(=O)CN)C(=O)NCC(=O)N[C@@H](C)C(=O)N[C@H](C(=O)N[C@@H](CC(C)C)C(=O)N[C@@H](CCCCN)C(=O)N[C@H](C(=O)N[C@@H](CC(C)C)C(=O)N[C@H](C(=O)N[C@H](C(=O)NCC(=O)N[C@@H](CC(C)C)C(=O)N1CCC[C@H]1C(=O)N[C@@H](C)C(=O)N[C@@H](CC(C)C)C(=O)N[C@H](C(=O)N[C@@H](CO)C(=O)N[C@@H](Cc1c[nH]c2ccccc12)C(=O)N[C@H](C(=O)N[C@@H](CCCCN)C(=O)N[C@@H](CCCNC(=N)N)C(=O)N[C@@H](CCCCN)C(=O)N[C@@H](CCCNC(=N)N)C(=O)N[C@@H](CCC(N)=O)C(=O)N[C@@H](CCC(N)=O)C(N)=O)[C@@H](C)CC)[C@@H](C)CC)[C@@H](C)O)[C@@H](C)O)C(C)C)C(C)C [melittin, Melittin, reference compound]						2.7 µg/mL
C[C@H](N=C1C[C@H]2C[C@H](C2(C)C)[C@@]1(C)O)c1cccc[c]1[Pd][Cl].C[C@H](N=C1C[C@H]2C[C@H](C2(C)C)[C@@]1(C)O)c1cccc[c]1[Pd][Cl] [Compound 1]	4 µg/mL	1 µg/mL	0.5 µg/mL		11.9 µg/mL	3.9 µg/mL
C[C@H](N[C@@H]1C[C@H]2C[C@H](C2(C)C)[C@@]1(C)O)c1cccc[c]1[Pd]([Cl])[P](c1ccccc1)(c1ccccc1)c1ccccc1 [Compound 5, (+)-trans-Chloro{(1R,2R,3R,5R)-3-((S)-1′-phenylethylamino)-2,6,6-trimethylbicyclo[3.1.1]heptane-2-ol-C,N}(triphenylphosphine)palladium(II)]	16 µg/mL	2 µg/mL	1 µg/mL		2.9 µg/mL	5.6 µg/mL
